Values of other authors as cited in US20070036859A1, “Sustained release antihistamine and decongestant composition” (priority 2005, published 2007).

Settings: conventional tablets, oral

In the case of `CCOC(=O)N1CCC(=C2c3ccc(Cl)cc3CCc3cccnc32)CC1` [loratadine], the “duration of antihistaminic effect” value is given as over 24 h and the “time to begin of antihistaminic effect after ingestion” value is given as “one to three”.
